# Laboratory results taken from patent US20240226127A1, “NUCLEOSIDE COMPOUND AND APPLICATION THEREOF IN THE TREATMENT OF FELINE INFECTIOUS PERITONITIS” (VIGONVITA LIFE SCIENCES CO., LTD., priority 2021, published 2024).
# Tests used:
# [1] = test system: feline infectious peritonitis; test: Pharmacodynamic experiment on feline infectious peritonitis (subcutaneous aqueous injection); type: in vivo; settings: cats with feline infectious peritonitis, 2 mg/kg once a day subcutaneous aqueous injection, two weeks; for weight changes of cats before and after treatment: FIG. 1; for number of erythrocytes: FIG. 2; for ratio of Albumin to Globulin (A/G): FIG. 3
# Experimental: 15 mg of compounds 1, 32, and 85 was dissolved separately in 5 mL of solution (water:propylene glycol:PEG=2:1:1) to prepare an injection solution for injection administration. The injection can be stored at room temperature. Use a 2 mL disposable veterinary syringe to draw the corresponding volume of the injection solution and expel air upwards. When injecting, choose a site with soft skin, loose subcutaneous tissue, and fewer blood vessels, such as the neck or medial thigh, for subcutaneous injection. The dosage of administration is 2 mg/kg body weight once a day. Blood samples are collected every three days and blood routine and corresponding biochemical indicators are measured. The end of the experiment is marked when the cat's biochemical indicators return to normal. The indicator data measured in the experiment includes body weight data, erythrocyte data, and data of the ratio of Albumin to Globulin. The experimental subjects for each compound are 15 cats diagnosed with feline infectious peritonitis.
# [2] = test system: Feline Infectious Peritonitis Virus (FIPV); test: In vitro anti feline infectious peritonitis virus (FIPV) activity in CRFK cells; type: cell-based; settings: Alphacoronavirus 1, 0.1 MOI FIPV, 72 hours, CellTier-Glo cell viability
# Experimental: Well-growing CRFK cells were inoculated on a 96-well plate. When the cells grow to 80%-90% confluence, 0.1 MOI Feline Infectious Peritonitis Virus (FIPV) and different concentrations of test compounds (0.3125 μM, 0.625 μM, 1.25 μM, 2.5 μM, 5 μM, 10 μM, 20 μM, and 40 μM) were added to each well. Simultaneously set up cell control and virus control with 1% DMSO each well. After being incubated at 37° C. for 72 hours, the cells were treated with CellTier-Glo luminescence assay cell viability detection reagents (Promega, Madison, WI, USA), and the half effective concentration (EC50) of the compounds against virus inhibition was calculated by GraphPad prism 7 software.
# [3] = Solubility test in water (HPLC, external standard method); type: physicochemical; settings: thermodynamic from solid
# Experimental: Experimental method: Refer to the high-performance liquid chromatography method (Chinese Pharmacopoeia, 2020 Edition, Part Four, General Rule 0512) for determination.
# a. Take approximately 1-2 mg of the compound, and place it in a 10 ml volumetric flask. Add lml of water and vigorously shake for 30 seconds every 5 minutes. Observe for 30 minutes. The sample is not completely dissolved. Filter through a 0.45 μm filter membrane, and take the remaining filtrate as the test solution.
# b. Take approximately amount of the reference substance, add solvent (DMSO: methanol=10:90) to dissolve and dilute it quantitatively to produce a solution containing 0.1 mg per 1 ml as the reference substance solution.
# c. Accurately measure 20 μl of each of the reference substance and test solution, and inject them into the liquid chromatograph respectively. Calculate the peak area according to the external standard method. Calculation formula: […]
# In the formula: AT: the main peak area of the test solution; AR: the main peak area of reference substance solution; WR: weighing amount of reference substance solution, mg; VR: dilution volume of reference substance solution, ml; S: content of reference substance solution, %.
# d. Chromatographic conditions: Using octadecylsilane bonded silica gel as the filling agent (Welch Ultimate XB-C18, 4.6×150 mm, suitable for 5 um columns). […]
solubility at 30 min [3],SMILES,weight changes of cats before and after treatment [1],number of erythrocytes [1],ratio of Albumin to Globulin (A/G) [1],EC50 [2]
–,CC(=O)OC[C@H]1O[C@@](C#N)(c2ccc3c(N)ncnn23)[C@H](O)[C@@H]1O [Compound 1],significantly raised,significantly increased,reached normal values,–
–,CC(C)C(=O)OC[C@H]1O[C@@](C#N)(c2ccc3c(N)ncnn23)[C@H](O)[C@@H]1O [Compound 4],–,–,–,650 nM
–,N#C[C@@]1(c2ccc3c(N)ncnn23)O[C@H](COC(=O)CC(F)(F)F)[C@@H](O)[C@H]1O [Compound 14],–,–,–,2950 nM
–,N#C[C@@]1(c2ccc3c(N)ncnn23)O[C@H](COC(=O)C2CCC2)[C@@H](O)[C@H]1O [Compound 16],–,–,–,810 nM
–,N#C[C@@]1(c2ccc3c(N)ncnn23)O[C@H](COC(=O)C2CCCCC2)[C@@H](O)[C@H]1O [Compound 18],–,–,–,350 nM
–,N#C[C@@]1(c2ccc3c(N)ncnn23)O[C@H](COC(=O)CO)[C@@H](O)[C@H]1O [Compound 32],significantly raised,significantly increased,reached normal values,6210 nM
–,CN(C)CCN(C)C(=O)OC[C@H]1O[C@@](C#N)(c2ccc3c(N)ncnn23)[C@H](O)[C@@H]1O [Compound 85],significantly raised,significantly increased,reached normal values,–
50 µg/mL,N#C[C@@]1(c2ccc3c(N)ncnn23)O[C@H](CO)[C@@H](O)[C@H]1O [GS-441524],–,–,–,–
